Earlier results in article PMC4832308 (Cancer, 2015).

How the values were obtained:
patients [1] = details: phase 1 study; cited from earlier work
patients [2] = details: phase 1 study, cited from earlier work

| SMILES | best response SD rate (patients [1]) [%] | patients with best response SD (patients [1]) [patients] | patients with a response (patients [2]; MM) [patient] | response rate (patients [2]; MM) [%] | response duration (patients [2]; patient with MM) [months] | patients with SD (patients [2]) [patients] |
| --- | --- | --- | --- | --- | --- | --- |
| COc1ccc(-c2ccc3c(N4CCOC[C@@H]4C)nc(N4CCOC[C@@H]4C)nc3n2)cc1CO [AZD8055] | 14.3 | 7 | – | – | – | – |
| CC(C)n1nc(-c2ccc3oc(N)nc3c2)c2c(N)ncnc21 [MLN0128] | – | – | 1 | 4 | ~2 | 15 |
